The values that follow come from patent publication US20120029038A1, “ANIMAL ECTOPARASITE-CONTROLLING AGENT” (SUMITOMO CHEMICAL COMPANY, LIMITED, priority 2010, published 2012).

What all share (format): in vivo
Assay [1] relates to cat fleas (Ctenocephalides felis). Description: Pesticidal activity on cat fleas in filter paper test. As to conditions: 48 h. As to the method:
Each (11.3 mg) of the present hydrazide compounds (5) and (8) was dissolved in acetone (5 mL), and this acetone solution ([…]) was uniformly applied onto one side of a filter paper (TOYO No. 2; diameter 3.8 cm; the surface area of the filter paper was 11.3 cm^2, and thus the amount of the present hydrazide compound applied was 400 mg/m^2). After drying, said filter paper was placed on the inside of the lid of a 100 mL vial container. Into the vial container, 20 cat flea adults were released and the lid was closed. The vial container was inverted to force the cat fleas to contact the filter paper. Two (2) days later, the number of dead fleas was examined and the mortality was calculated by the following formula:
(§1) Mortality(%)=100×(number of dead cat fleas/number of cat fleas tested)

The test system of assay [2] is ticks (Haemaphysalis longicornis). Put plainly: Oral administration against dog-infested ticks. As to conditions: oral gelatin capsules, 20 mg/kg. As to the method:
Each of the present hydrazide compounds (5) and (8) and Comparative compound (52) was filled into gelatin capsules, and forcibly and orally administered to a dog in a dose amount of 20 mg per 1 kg of the dog's body weight. This is referred to as a test group. On the other hand, gelatin capsules alone were orally administered to a placebo group.
Forty two (42) days later, 100 test ticks were deposited on each dog. Two (2) days after the deposit, the number of living ticks, which were infesting the dogs, was examined. When the examination was completed, all infested ticks were removed from the dogs. The infestation rate and control rate were calculated by the following formulae: […]
Method of calculating infestation rate and control rate at 44 days after the administration:
Infestation rate(%) at X days after administration=(number of living ticks at X days/number of ticks deposited)×100
Control rate(%) at X days after administration (infestation rate of placebo group at X days−infestation rate of test group at X days)/infestation rate of placebo group at X days[…]
(§2) In addition, if an infestation rate of a test group is higher than a placebo group, then the control rate is deemed to be 0%.

Assay [3] has as its system cat fleas (Ctenocephalides felis). Put plainly: Dropping application against cat-infested cat fleas. As to the method:
The previous day before dropping application, 50 test fleas (cat flea adults) were deposited on a cat. Before the dropping application, infested fleas were counted.
Each (0.375 g or 1.5 g) of the present hydrazide compounds (5) and (8) and Comparative compound (52) was dissolved in diethylene glycol monoethyl ether (6.0 g) to prepare a test solution. Said test solution was directly dropped on the skin of the neck and back of the cat while pushing aside fur thereon on at a rate of 0.1 ml per 1 kg of the cat's body weight (dose amount: 5 or 20 mg/kg). This is referred to as a test group. On the other hand, diethylene glycol monoethyl ether alone was applied dropwise to a placebo group.
Two (2) days after the application, the number of living fleas, which were infesting the cats, was examined. When the examination was completed, all infested fleas were removed from the cats.
Fourteen (14) days and 28 days later, 50 test fleas were re-deposited on each cat. Two (2) days after the re-deposit, the number of living fleas, which were infesting the cats, was examined. When the examination was completed, all infested fleas were removed from the cats. The infestation rate and control rate were calculated by the following formulae: […]
(§3) (i) Method of calculating infestation rate and control rate at the initial stage (2 days) after the application:
Infestation rate(%) at X days after application=(number of living fleas at X days/number of living fleas before application)×100
(§4) Control rate(%) at X days after application=(infestation rate of test group before application−infestation rate of test group at X days)/infestation rate of test group before application×100
(§5) (ii) Method of calculating infestation rate and control rate at 16 days and 30 days after the application:
Infestation rate(%) at X days after application−(number of living fleas at X days/number of fleas deposited)×100
(§6) Control rate(%) at X days after the application (infestation rate of placebo group at X days−infestation rate of test group at X days)/infestation rate of placebo group at X days×100
as §2

The subject of assay [4] is ticks (Haemaphysalis longicornis). Description: Dropping application against dog-infested ticks. The conditions noted are these: dog (beagle), 20 mg/kg. As to the method:
The previous day before dropping application, 100 test ticks (Haemaphysalis longicornis, young ticks) were deposited on a dog (beagle). Before the dropping application, infested ticks were counted.
Each (1.5 g) of the present hydrazide compounds (5) and (8) was dissolved in diethylene glycol monoethyl ether (6.0 g) to prepare a test solution. Said test solution was directly dropped on the skin of the neck and back of the dog while pushing aside fur thereon at a rate of 0.1 ml per kg of the dog's body weight (dose amount: 20 mg/kg). This is referred to as a test group. On the other hand, diethylene glycol monoethyl ether alone was applied dropwise to a placebo group.
Two (2) days after the application, the number of living ticks, which were infesting the dogs, was examined. When the examination was completed, all infested ticks were removed from the dogs.
Fourteen (14) days and 28 days later, 100 test ticks were re-deposited on each dog. Two (2) days after the re-deposit, the number of living ticks, which were infesting the dogs, was examined. When the examination was completed, all infested ticks were removed from the dogs. The infestation rate and control rate were calculated by the following formulae: […]
as §3
Infestation rate(%) at X days after application=(number of living ticks at X days/number of living ticks before application)×100
as §4, §5
Infestation rate(%) at X days after application=(number of living ticks at X days/number of ticks deposited)×100
as §6, §2

In assay [5] the test system is cat fleas (Ctenocephalides felis). Description: Oral administration against cat-infested cat fleas. As to conditions: oral with cat food. As to the method:
The previous day before oral administration, 50 test fleas (cat flea adults) were deposited on a cat. Before the oral administration, infested fleas were counted.
Each of the present hydrazide compounds (5) and (8) was mixed with a cat food, and orally administered to a cat in a dose amount of 5 or 20 mg per 1 kg of the cat's body weight. This is referred to as a test group. On the other hand, the cat food alone was fed to a placebo group.
Two (2) days after the administration, the number of living fleas, which were infesting the cats, was examined. When the examination was completed, all infested fleas were removed from the cats.
Forty two (42) days later, 50 test fleas were re-deposited on each cat. Two (2) days after the re-deposit, the number of living fleas, which were infesting the cats, was examined. When the examination was completed, all infested fleas were removed from the cats. The infestation rate and control rate were calculated by the following formulae: […]
(i) Method of calculating infestation rate and control rate at the initial stage (2 days) after the administration:
Infestation rate(%) at X days after administration=(number of living fleas at X days/number of living fleas before administration)×100
Control rate(%) at X days after administration (infestation rate of test group before administration−infestation rate of test group at X days)/infestation rate of test group before administration×100
(ii) Method of calculating infestation rate and control rate at 44 days after the administration:
Infestation rate(%) at X days after administration=(number of living fleas at X days/number of fleas deposited)×100
Control rate(%) at X days after administration (infestation rate of placebo group at X days−infestation rate of test group at X days)/infestation rate of placebo group at X days×100
as §2

For assay [6] the test system is unchanged. Put plainly: Dropping application against mouse-infested cat fleas. The conditions noted are these: 0.5% w/v solution 200 μL dropwise along dorsal line, 2 days later. As to the method:
The present hydrazide compound (8) (25 mg) was dissolved in propylene carbonate (5 mL) to prepare a 0.5% w/v solution. Said solution (200 μL) was applied dropwise along the dorsal line of a mouse with a pipette. To a control group, propylene carbonate (200 μL) alone was applied. Each application was repeated 3 times per group.
After the dropping application, 20 cat fleas were deposited on each mouse. Two (2) days later, the number of dead cat fleas was examined and the mortality was calculated by the following formula:
as §1

In assay [1], `CN(NC(=O)CCC(F)(F)F)c1cc(C2=NOC(c3cc(Cl)cc(Cl)c3)(C(F)(F)F)C2)ccc1Cl` (stereo not shown) [Compound (8), N′-methyl-N′-{2-chloro-5-[5-(3,5-dichlorophenyl)-5-trifluoromethyl-4,5-dihydroisoxazol-3-yl]phenyl}-4,4,4-trifluorobutyrohydrazide] displayed a mortality at 400 mg/m2 of at least 90%. Also, the “Tick control rates (%) at 44 days after the administration” value in assay [2] was found to be 93%. Further, in assay [3] (5 mg/kg), the “Flea control rates (%) at 2 days after the application” value was 100%, the “Flea control rates (%) at 16 days after the application” value is 100% and the “Flea control rates (%) at 30 days after the application” value is recorded as 97%. Also, in assay [3] (20 mg/kg), the “Flea control rates (%) at 2 days after the application” value was 100%, the “Flea control rates (%) at 16 days after the application” value is 100% and the “Flea control rates (%) at 30 days after the application” value was 100%. Also, the “Tick control rates (%) at 2 days after the application” value in assay [4] (2 days) is 31%. Also, the “Tick control rates (%) at 16 days after the application” value in assay [4] (16 days) is 100%. Also, the “Tick control rates (%) at 30 days after the application” value in assay [4] (30 days) is 100%. In addition, in assay [5] (5 mg/kg), the “Flea control rates (%) at 2 days after the administration” value is recorded as 100% and the “Flea control rates (%) at 44 days after the administration” value is recorded as 90%. In assay [5] (20 mg/kg), the “Flea control rates (%) at 2 days after the administration” value was found to be 100% and the “Flea control rates (%) at 44 days after the administration” value is listed as 100%. For the same compound, the Mortality in assay [6] was at least 70%.

As usually defined, the mortality is the percentage killed. A lower mortality goes with a weak lethal effect.
